# Data from ChEMBL document CHEMBL5244259, “Azithromycin: The First Broad-spectrum Therapeutic” (Eur J Med Chem, 2020).
# Key:
# SARS-CoV-2 = test: Antiviral activity against SARS-COV-2 infected in African green monkey Vero cells assessed as reduction in virus induced cytopathic effect preincubated with cells for 15 mins followed by viral infection and measured after 2 days by RT-PCR analysis; assay type: functional, organism-based; conditions: Severe acute respiratory syndrome coronavirus 2, Vero
# [1] = Cytotoxicity against African green monkey Vero cells by Celltiter blue assay; assay type: toxicity, cell-based; conditions: chlorocebus sabaeus
# [2] = Selectivity index, ratio of CC50 for African green monkey Vero cells to EC50 for SARS-COV-2; assay type: toxicity; conditions: read-out: Ratio CC50/EC50
# Zika virus = test: Antiviral activity against Zika virus GZ01/2016 infected in African green monkey Vero cells assessed as reduction in virus induced cytopathic effect preincubated with cells for 12 hrs followed by viral infection and measured after 48 hrs by qRT-PCR analysis; assay type: functional, organism-based; conditions: GZ01/2016, Vero
# [3] = Antiproliferative against African green monkey Vero cells incubated for 40 hrs by Celltiter assay; assay type: toxicity, cell-based; conditions: chlorocebus sabaeus
# [4] = Selectivity index, ratio of CC50 for African green monkey Vero cells to EC50 for Zika virus GZ01/2016 infected in African green monkey Vero cells; assay type: toxicity; conditions: read-out: Ratio CC50/EC50
# dengue virus type 2 = test: Antiviral activity against Dengue virus 2 infected in African green monkey Vero cells assessed as reduction in virus induced cytopathic effect preincubated with cells for 12 hrs followed by viral infection and measured after 48 hrs by qRT-PCR analysis; assay type: functional, organism-based
# [5] = Selectivity index, ratio of CC50 for African green monkey Vero cells to EC50 for Dengue virus 2 infected in African green monkey Vero cells; assay type: toxicity; conditions: read-out: Ratio CC50/EC50
# [6] = Antiproliferative against African green monkey Vero cells; assay type: toxicity, cell-based; conditions: chlorocebus sabaeus
# Zaire ebolavirus = test: Antiviral activity against Zaire ebolavirus infected in African green monkey Vero cells assessed as reduction in virus induced cytopathic effect preincubated with cells for 1 hr followed by viral infection and measured after 48 hrs; assay type: functional, organism-based
# [7] = Cytotoxicity against African green monkey Vero cells by MTT assay; assay type: toxicity, cell-based; conditions: chlorocebus sabaeus
# [8] = Selectivity index, ratio of CC50 for African green monkey Vero cells to EC50 for Zaire ebolavirus infected in African green monkey Vero cells; assay type: toxicity; conditions: read-out: Ratio CC50/EC50
# Influenza A virus = test: Antiviral activity against Influenza A virus A/California/7/2009(H1N1) strain infected in A549 cells assessed as reduction in viral infection incubated for 48 hrs by qPCR analysis; assay type: functional, organism-based; conditions: A549, 48 h
# A549 = test: Cytotoxicity against human A549 cells by MTT assay; assay type: functional
# [9] = Selectivity ratio of CC50 for human A549 cells to EC50 for Influenza A virus A/California/7/2009(H1N1) strain infected in A549 cells; assay type: toxicity, cell-based; conditions: read-out: Ratio CC50/EC50
compound,measurement,setting,value
CC[C@H]1OC(=O)[C@H](C)[C@@H](O[C@H]2C[C@@](C)(OC)[C@@H](O)[C@H](C)O2)[C@H](C)[C@@H](O[C@@H]2O[C@H](C)C[C@H](N(C)C)[C@H]2O)[C@](C)(O)C[C@@H](C)CN(C)[C@H](C)[C@@H](O)[C@]1(C)O [AZITHROMYCIN],EC50,SARS-CoV-2,2120 nM
same,EC90,"SARS-CoV-2; 48.25 h, time 2895 min",8.65 µM
same,CC50,[1],> 40 µM
same,selectivity ratio,[2],> 19
same,EC50,Zika virus,6.59 µM
same,CC50 at 40 h,[3],810 µM
same,selectivity ratio,[4],123
same,EC50,dengue virus type 2,3.71 µM
same,selectivity ratio,[5],218
same,CC50,[6],810 µM
same,EC50,Zaire ebolavirus,5.1 µM
same,CC50,[7],> 130 µM
same,selectivity ratio,[8],> 25
same,EC50,Influenza A virus,68 µM
same,CC50,A549,> 600 µM
same,selectivity ratio,[9],> 8.8
